Results reported in PubChem BioAssay (NCI).
“And” between values parts separate entries of the source, which are not always exact repeats. Equal values may be shown once.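 Tested at 5 concentrations; 48 h exposure; 96-well plates; endpoints linearly interpolated, else capped at highest concentration. GI50: concentration for 50% inhibition of growth. TGI: concentration producing complete growth inhibition.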

Key:
Assay in all cases: inhibition of tumour cell growth, NCI panel, 48 h
[1] = test system: SF-268 CNS
[2] = test system: DLD-1 colon
[3] = test system: KM12 colon
[4] = test system: OVCAR-5 ovarian
[5] = test system: M14 melanoma
[6] = test system: M19-MEL melanoma
[7] = test system: 786-0 renal
[8] = test system: SNB-19 CNS
[9] = test system: SF-295 CNS
[10] = test system: A498 renal
[11] = test system: PC-3 prostate

SMILES | TGI [1] | TGI [2] | TGI [3] | TGI [4] | TGI [5] | TGI [6] | TGI [7] | TGI [8] | TGI [9] | TGI [10] | TGI [11] | GI50 [1] | GI50 [4] | GI50 [5] | GI50 [9] | GI50 [2] | GI50 [3] | GI50 [6] | GI50 [10] | GI50 [8]
CCN(CC)c1ccc(C(=C2C=CC(=[N+](CC)CC)C=C2)c2ccccc2)cc1 | 0.195 µM | 0.193 µM | 0.124 µM | 0.342 µM | 0.641 µM | 0.158 µM | 0.151 µM | 0.179 µM | 0.0664 µM |  |  |  |  |  |  |  |  |  |  | 
O=C(CCN1CCCCC1CO)Nc1ccc2c(c1)C(=O)c1ccc(NC(=O)CCN3CCCCC3CO)cc1C2=O (stereo not drawn) | 40.6 µM |  | 17.1 µM | 67.5 µM | 22.4 µM | 29.3 µM | 6.58 µM | 31.2 µM | 62.6 µM | 9.87 µM |  |  |  |  |  |  |  |  |  | 
Fc1nc(F)nc(-c2c3ccccc3c3n2CCS3)n1 | > 100 µM | > 100 µM | > 100 µM | > 100 µM | > 100 µM | > 100 µM | > 100 µM | > 100 µM | > 100 µM | > 100 µM |  |  |  |  |  |  |  |  |  | 
C=C1C(=O)C[C@@]23CCC[C@@]12CC(O)C3 (stereo partly drawn) | > 100 µM | 54.8 µM | 51.3 µM | > 54.2 µM |  | > 70.2 µM |  | > 100 µM | > 100 µM | > 48.9 µM |  |  |  |  |  |  |  |  |  | 
COc1cc2cc3c4c(cc(OC)c(OC)c4c2cc1OC)CCN3C(=O)OCCBr | > 100 µM | > 100 µM | > 100 µM | > 100 µM |  | > 100 µM | > 100 µM | > 100 µM | > 100 µM | > 100 µM |  |  |  |  |  |  |  |  |  | 
CC(=O)Nc1ccc(C(=O)N2N=C(C)/C(=C/c3cccc(O)c3)C2=O)cc1 | > 100 µM | > 100 µM |  | > 100 µM | > 100 µM | > 100 µM | > 100 µM | > 100 µM | > 100 µM |  |  |  |  |  |  |  |  |  |  | 
O=C(Cc1nc2ccc([N+](=O)[O-])cc2[nH]c1=O)C(=O)Nc1cc(Cl)c(Cl)cc1Cl | > 100 µM |  | > 100 µM | > 100 µM | > 100 µM |  | > 100 µM | > 100 µM | > 100 µM | > 100 µM | > 100 µM |  |  |  |  |  |  |  |  | 
COc1cc(/C=C2\C[C@H]3[C@@H]4CC=C5C[C@@H](N6CCCC6)CC[C@]5(C)[C@H]4CC[C@]3(C)[C@H]2OC(C)=O)cc(OC)c1OC | 27.7 µM |  | 31.2 µM | 29.7 µM | 31.9 µM |  | 23.3 µM | 34.2 µM | 26.5 µM | 28.7 µM | 27.2 µM |  |  |  |  |  |  |  |  | 
CN1C/C(=C\c2ccccc2[N+](=O)[O-])C(=O)/C(=C/c2ccccc2[N+](=O)[O-])C1 | 7.23 µM and 2.86 µM |  | 4.65 µM and 2.63 µM | 10.3 µM and 3.87 µM | 4.17 µM and 0.876 µM |  | 1.01 µM and 0.467 µM | 16.6 µM and 19.2 µM | 13.7 µM and 7 µM | 4.45 µM and 4.72 µM | 6.45 µM and 3.29 µM | 1.78 µM and 0.737 µM | 3.27 µM and 1.05 µM | 1.76 µM and 0.298 µM | 5.62 µM and 2.46 µM |  |  |  |  | 
CN(Cc1nc2c(N)nc(N)nc2nc1N)c1ccc(C(=O)NC(CCC(=O)O)C(=O)O)cc1 (stereo not drawn) | > 100 µM |  | > 100 µM | > 100 µM | > 100 µM |  | > 100 µM | > 100 µM | > 100 µM | > 100 µM | > 100 µM |  |  |  |  |  |  |  |  | 
COc1ccc(C=O)cc1Oc1ccc(C[C@H]2c3c(cc(OC)c4c3Oc3cc5c(cc3O4)CCN(C)C5=O)CCN2C)cc1 | 22.4 µM |  | 17.1 µM | 34.8 µM | 19.1 µM |  | 16.3 µM | 30.2 µM | 16.3 µM | > 50 µM | 17.5 µM |  |  |  |  |  |  |  |  | 
CC(=O)c1c(O)c(C)c(O)c2c1OC1=CC(=O)C(C(C)=O)C(=O)C12C (stereo not drawn) | 42.2 µM and 91.7 µM | 29.9 µM and 69 µM | 32.2 µM and 63.5 µM | 50.4 µM and 84.6 µM |  | 44.4 µM and 79.3 µM |  | 18.2 µM and 44.5 µM | 12.4 µM and 33.8 µM | 0.412 µM and 0.742 µM |  | 9.46 µM and 26.1 µM | 17.1 µM and 38.1 µM |  | 3.48 µM and 8.79 µM | 4.9 µM and 16.1 µM | 6.21 µM and 19 µM | 5.4 µM and 24.9 µM | 0.232 µM and 0.507 µM | 4.26 µM and 12.4 µM
